Test results: US4882331A, “1-[(1,1-diphenyl)-1-alkenyl]piperazine derivatives, method of preparation and pharmaceutical compositions in which they are present” (priority 1987, dated 1989)

What was measured:
[1] = system: mouse muscle-relaxing action; experiment: Muscle-relaxing action (traction test); format: in vivo; conditions: IP, doses in mg.kg^-1
Text: 3. Muscle-relaxing action (traction test)
This test assesses the presence or absence of redressments in a mouse brought up to a horizontal wire with its front paws.
The number of mice which are unable to grip the wire with one of their back paws within 5 s is noted.
A 50% effective dose can be calculated from the results obtained.

[2] = system: pain syndrome caused by phenylbenzoquinone (PBQ); experiment: Peripheral analgesic activity (phenylbenzoquinone); format: in vivo; conditions: mouse; IP
Protocol: 5. Peripheral analgesic activity
A peritoneal pain is caused in mice by the intraperitoneal injection of phenylbenzoquinone (PBQ).
The test assesses the decrease in the pain syndrome, characterized by an abdominal twisting movement, which is caused by injecting the test derivative 30 min before the administration of PBQ.
The 50% effective dose is calculated from the percentage decrease in the pain syndrome relative to the control animals.

[3] = system: penile erections and yawning; experiment: Penile erections caused by apomorphine; format: in vivo; conditions: Rattus norvegicus; rats; IP; apomorphine 0.20 mg/kg; read-out: Antagonism of the penile erections and yawning: antagonism as from dose
Protocol: 3. Penile erections caused by apomorphine
The test product was administered parenterally or orally to rats, placed in a transparent cage, 30 minutes before the intraperitoneal injection of 0.20 mg/kg of apomorphine.
The number of penile erections was recorded over the 30 minutes following the injection of apomorphine.
A statistical study was carried out by comparison with the numbers of erections in the control rats.

central nervous system = experiment: Pharmacological tests on the central nervous system, overall result; format: in vivo, mouse, rat; conditions: overall statement on Table III
Protocol: The pharmacological properties of the compounds of the invention were determined using the following tests: Experimental protocols The results obtained are collated in Table III below. […]

[4] = system: hyperthermia and clinical signs after tranylcypromine and tryptophan; experiment: Grahame Smith's test; format: in vivo; conditions: rats; PO
Protocol: Animals: male rats of 200±10 g
At time T-30 minutes, the test product was administered intraperitoneally.
At time T=O, an MAOI was administered intraperitoneally (tranylcypromine, 20 mg/kg).
At time T+20 minutes, 250 mg/kg of tryptophan were administered (IP).
The temperature of the rats was recorded every 30 minutes for 200 minutes and the various clinical signs (motor agitation--hypersalivation--catatonia of the tail--hyperesthesia--thrashing of the tail, etc.) were noted on a scale of 0 to 1.
The mean temperatures and the average symptoms observed were calculated by comparison with the controls.

[5] = system: head twitches induced by 5-HTP; experiment: Head twitches caused by 5-hydroxytryptophane (5-HTP); format: in vivo; conditions: Mus musculus; male mice; IP; 5-HTP 4 mg/kg; read-out: Antagonism of the head twitches induced by 5-HTP: decrease as from dose
Protocol: 1. Head twitches caused by 5-hydroxytryptophane (5-HTP)
(§1) Animals: male mice of 25±1 g
At time T-3 h, 100 mg/kg of pargyline were injected intraperitoneally.
(§2) At time T-30 minutes, the test product or distilled water (control) was injected intraperitoneally.
At time T=O, 5-HTP was injected intraperitoneally at a dose of 4 mg/kg.
All the jerky head movements made by the mice were observed over a 1-minute period every twelve minutes.
(§3) The mean number of movements was calculated and compared with the control group.

in vivo = conditions: mouse, in vivo, ip
Protocol: (§4) The toxicity of the compounds of the invention was determined by the following test:
(§5) Determination of the 50% lethal dose (LD50) in mice
(§6) The test product was administered intraperitoneally to groups of 5 male mice and 5 female mice at a rate of 0.1 ml per 10 g of body weight.

mice = experiment: Determination of the 50% lethal dose (LD50) in mice; conditions: mice, IP
Protocol: as §4, §5, §6

[6] = system: antiserotoninergic activity; experiment: Antiserotoninergic activity tests, overall result; format: in vivo, mice, rats; conditions: overall statement on Table IV
Text: The compound of Example 1 was furthermore tested for its antiserotoninergic activity according to the following tests: […]

yohimbine toxicity = experiment: Yohimbine test (yohimbine toxicity); format: in vivo; conditions: 24 h; mouse; IP; yohimbine 25 mg/kg IP
Protocol: The test derivative is administered 30 min before the injection of yohimbine (25 mg/kg IP).
The number of deaths is counted 24 h after the injection of yohimbine.

[7] = system: head twitches induced by 5-MeODMT; experiment: Head twitches caused by 5-methoxydimethyltryptamine (5-MeODMT); format: in vivo; conditions: Mus musculus; male mice; IP; 5-MeODMT 4 mg/kg; read-out: Antagonism of the head twitches induced by 5-MeODMT: decrease as from dose
Protocol: 2. Head twitches caused by 5-methoxydimethyltryptamine (5-MeODMT)
as §1
At time T-3 hours, 100 mg/kg of pargyline were injected intraperitoneally.
as §2
At time T=O, 5-MeODMT was injected intraperitoneally at a dose of 4 mg/kg.
The number of head twitches was observed.
as §3

motor activity of mice = experiment: Study of the spontaneous motility (photoelectric actimeter); format: in vivo; conditions: mouse, IP; for Activity (spontaneous motility): doses in mg.kg^-1
Protocol: 1. Study of the spontaneous motility
The motor activity of mice was determined using a Boissier and Simon photoelectric actimeter.
The mice are placed in groups of five in a box closed with a lid, through which two perpendicular rays of light pass; the mice cut across these rays as they move.
These movements are counted by a meter, which is read 30 min and 1 h after the administration of the test derivative.

O=C(O)CCCCCCNC1c2ccccc2CCc2ccccc21 [AMINEPTINE]
Muscle-relaxing action, traction test [1]: No action

Fc1ccc(OCCN2CCN(CCC=C(c3ccccc3)c3ccccc3)CC2)cc1 [Compound 1, 1-[(1,1-diphenyl)-1-buten-4-yl]-4-[1-(2-(4-fluorophenoxy)ethyl]piperazine dimethanesulfonate]
ED50 [2]: 1.5 mg/kg
minimal effective dose [3]: ≥ 6.25 mg/kg
antidepressant / central nervous system activity (central nervous system): antidepressants with a greater activity than the known antidepressants
Grahame Smith's test: decrease at dose [4]: 37.5 mg/kg
minimal effective dose [5]: ≥ 18.8 mg/kg
LD50 (in vivo): 231 mg/kg
FIDUCIAL LIMITS of LD50, CALCULATION ACCORDING TO LITCHFIELD and WILCOXON (mice): 195 to 274 mg/kg
antiserotoninergic activity [6]: possesses an antiserotoninergic activity
ED50 (yohimbine toxicity): 31 mg/kg
minimal effective dose [7]: ≥ 6.25 mg/kg

Cc1ccccc1OC(CCN1CCN(CCC=C(c2ccccc2)c2ccccc2)CC1)c1ccccc1 (stereo not drawn) [Compound 4]
ED50 [2]: 1.5 mg/kg
LD50 (in vivo): 386 mg/kg
FIDUCIAL LIMITS of LD50, CALCULATION ACCORDING TO LITCHFIELD and WILCOXON (mice): 279 to 453 mg/kg
Activity (spontaneous motility) (motor activity of mice): Increase

Fc1ccc(OC(CCN2CCN(CCC=C(c3ccccc3)c3ccccc3)CC2)c2ccccc2)cc1 (stereo not drawn) [Compound 5]
LD50 (in vivo): 314 mg/kg
FIDUCIAL LIMITS of LD50, CALCULATION ACCORDING TO LITCHFIELD and WILCOXON (mice): 234 to 421 mg/kg

Fc1ccc(OCCCN2CCN(CCC=C(c3ccccc3)c3ccccc3)CC2)cc1 [Compound 6]
LD50 (in vivo): 247 mg/kg
FIDUCIAL LIMITS of LD50, CALCULATION ACCORDING TO LITCHFIELD and WILCOXON (mice): 206 to 296 mg/kg
ED50 (yohimbine toxicity): 25 mg/kg

O=C(CCCN1CCN(CCC=C(c2ccccc2)c2ccccc2)CC1)c1ccc(F)cc1 [Compound 7]
ED50 (motor activity of mice): 7.5 mg/kg
ED50 (yohimbine toxicity): > 25 mg/kg

Fc1ccc(OCCCCN2CCN(CCC=C(c3ccccc3)c3ccccc3)CC2)cc1 [Compound 8]
ED50 [2]: 6.25 mg/kg
LD50 (in vivo): 199 mg/kg
FIDUCIAL LIMITS of LD50, CALCULATION ACCORDING TO LITCHFIELD and WILCOXON (mice): 172 to 229 mg/kg
ED50 (yohimbine toxicity): > 25 mg/kg

Cc1ccc(OCCCCN2CCN(CCC=C(c3ccccc3)c3ccccc3)CC2)cc1 [Compound 14]
ED50 [2]: 2.5 mg/kg
Activity (spontaneous motility) (motor activity of mice): Decrease
ED50 (yohimbine toxicity): > 25 mg/kg

Fc1ccc(OCCN2CCN(CCCC=C(c3ccccc3)c3ccccc3)CC2)cc1 [Compound 16]
ED50 [2]: 4.5 mg/kg

Fc1ccc(OCCN2CCN(CCC=C(c3ccccc3)c3ccc(F)cc3)CC2)cc1 [Compound 17]
ED50 [2]: 5.2 mg/kg
ED50 (yohimbine toxicity): > 25 mg/kg

CN(C)CCCN1c2ccccc2CCc2ccccc21 [IMIPRAMINE]
Muscle-relaxing action, traction test [1]: No action
